Values belong to the molecule of their own block, whether it stands above or below them.
Legend:
OATP1B1 [1] = molecular target: T1, OATP1B1 (Homo sapiens, UniProt Q9Y6L6); assay type: cell-based; settings: for Reduction of OATP1B1 function: overexpressing HEK293 cells, 10 μM TKI screen; for Mechanism of OATP1B1 inhibition: kinetic analysis (Dixon plot) and pre-incubation effects
T1 sequence (Q9Y6L6 1-691): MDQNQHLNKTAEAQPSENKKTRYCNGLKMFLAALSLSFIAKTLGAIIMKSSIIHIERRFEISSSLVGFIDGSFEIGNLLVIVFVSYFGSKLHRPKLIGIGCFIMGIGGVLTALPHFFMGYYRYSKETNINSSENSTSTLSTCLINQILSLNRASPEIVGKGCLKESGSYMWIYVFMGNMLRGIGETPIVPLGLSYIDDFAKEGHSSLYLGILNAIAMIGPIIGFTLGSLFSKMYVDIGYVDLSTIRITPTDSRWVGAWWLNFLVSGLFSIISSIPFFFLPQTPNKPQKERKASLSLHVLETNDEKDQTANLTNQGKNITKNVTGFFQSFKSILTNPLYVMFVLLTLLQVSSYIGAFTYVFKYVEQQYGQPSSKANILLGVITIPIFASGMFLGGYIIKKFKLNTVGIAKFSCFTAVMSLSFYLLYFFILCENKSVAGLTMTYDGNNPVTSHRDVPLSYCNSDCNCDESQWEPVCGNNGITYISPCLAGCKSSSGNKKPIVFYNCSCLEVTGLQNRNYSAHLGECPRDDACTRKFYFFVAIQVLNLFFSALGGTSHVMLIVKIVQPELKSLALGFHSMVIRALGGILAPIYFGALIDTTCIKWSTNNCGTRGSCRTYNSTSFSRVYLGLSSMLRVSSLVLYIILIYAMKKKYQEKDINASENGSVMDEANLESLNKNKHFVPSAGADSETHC

LYN kinase = LYN kinase (Homo sapiens, UniProt P07948); test: Kinase hotspot assay against LYN kinase; assay type: biochemical; settings: for Inhibition of LYN kinase activity: 10-dose curve from 50 μM, 10 μM ATP
[2] = cited from earlier work
OATP1B1 [3] = molecular target: T1, OATP1B1; test: Cellular accumulation of 3H-lapatinib; assay type: in vitro ADME; settings: 3H-lapatinib 1 μM
OATP1B1 [4] = settings: ref prescribing information; cited from earlier work
OATP1B1 [5] = molecular target: T1, OATP1B1; test: OATP1B1-dependent uptake of 3H-EβG in human plateable hepatocytes; assay type: cell-based; settings: 10 μM, 15 min pre-incubation; 3H-EβG 1 μM, 2 minutes
OATP1B1 [6] = test: Mass spectrometric analysis of OATP1B1 tyrosine phosphorylation; assay type: cell-based, human; settings: 10 μM nilotinib 15 minutes
OATP1B1 [7] = test: Surface expression of OATP1B1 by biotinylation; assay type: cell-based, human; settings: 10 μM nilotinib
PKC = settings: concentrations of nilotinib used in the study; cited from earlier work

LYN kinase, sequence (P07948 whole entry): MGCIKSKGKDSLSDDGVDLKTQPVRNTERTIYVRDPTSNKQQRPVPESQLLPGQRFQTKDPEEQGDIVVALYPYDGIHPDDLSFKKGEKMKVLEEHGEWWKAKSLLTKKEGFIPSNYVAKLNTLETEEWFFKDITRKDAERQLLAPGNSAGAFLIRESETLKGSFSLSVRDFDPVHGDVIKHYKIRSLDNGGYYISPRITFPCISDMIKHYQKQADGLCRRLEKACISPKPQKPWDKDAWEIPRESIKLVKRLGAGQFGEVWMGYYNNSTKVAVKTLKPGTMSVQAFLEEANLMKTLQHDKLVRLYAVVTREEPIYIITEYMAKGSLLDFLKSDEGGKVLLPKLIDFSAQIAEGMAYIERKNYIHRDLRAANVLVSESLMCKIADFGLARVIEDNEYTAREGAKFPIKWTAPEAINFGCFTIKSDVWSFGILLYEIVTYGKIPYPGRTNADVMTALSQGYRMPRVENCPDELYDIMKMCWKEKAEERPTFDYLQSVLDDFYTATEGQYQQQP

Mechanism of OATP1B1 inhibition (OATP1B1 [1]): predominantly non-competitive
Reduction of OATP1B1 function (OATP1B1 [1]): > 75%
Effect on OATP1B1-dependent transport ex vivo in human hepatocytes (OATP1B1 [5]): reduces OATP1B1-dependent transport
Compound: Cc1cn(-c2cc(NC(=O)c3ccc(C)c(Nc4nccc(-c5cccnc5)n4)c3)cc(C(F)(F)F)c2)cn1 [nilotinib]
Effect on overall tyrosine phosphorylation of OATP1B1 (OATP1B1 [6]; overexpressing HEK293 cells): no significant effect
Effect on OATP1B1 phosphorylation at Y645 (OATP1B1 [6]; P<0.05): significantly reduced
Effect on OATP1B1 phosphorylation of Y640 alone (OATP1B1 [6]; trend, P = 0.11): not significantly reduced
Effect on membrane surface expression of OATP1B1 (OATP1B1 [7]): not associated with significantly reduced membrane surface expression
Effect on PKC activity (PKC): do not affect PKC activity

Reduction of OATP1B1 function (OATP1B1 [1]): > 75%
Compound: CNC(=O)c1cc(Oc2ccc(NC(=O)Nc3ccc(Cl)c(C(F)(F)F)c3)cc2)ccn1 [sorafenib]

Mechanism of OATP1B1 inhibition (OATP1B1 [1]): competitive
Inhibition of LYN kinase activity (LYN kinase): did not inhibit
Compound: CC(=O)Nc1cccc(-n2c(=O)n(C3CC3)c(=O)c3c(Nc4ccc(I)cc4F)n(C)c(=O)c(C)c32)c1 [trametinib]

More lines, now with the values behind:

Compound: CNC(=O)c1ccccc1Sc1ccc2c(/C=C/c3ccccn3)n[nH]c2c1 [axitinib]
Reduction of OATP1B1 function (OATP1B1 [1]): > 75%

Compound: COc1cc2nccc(Oc3ccc(NC(=O)C4(C(=O)Nc5ccc(F)cc5)CC4)cc3)c2cc1OC [cabozantinib]
Reduction of OATP1B1 function (OATP1B1 [1]): > 75%
IC50 (LYN kinase): 15 to 685 nM

Compound: CC(C)(C)c1nc(-c2cccc(NS(=O)(=O)c3c(F)cccc3F)c2F)c(-c2ccnc(N)n2)s1 [dabrafenib]
Reduction of OATP1B1 function (OATP1B1 [1]): > 75%
Effect on systemic concentrations of the OATP1B1 substrate rosuvastatin [2]: increase the systemic concentrations

Compound: CS(=O)(=O)CCNCc1ccc(-c2ccc3ncnc(Nc4ccc(OCc5cccc(F)c5)c(Cl)c4)c3c2)o1 [lapatinib]
Inhibition of LYN kinase activity (LYN kinase): did not inhibit
OATP1B1 substrate status (OATP1B1 [3]): transported substrate of OATP1B1
OATP1B1 substrate/inhibitor status per prescribing information (OATP1B1 [4]): can reduce OATP1B1 function

Compound: O=C(Nc1cnn2ccc(N3CCC[C@@H]3c3cc(F)ccc3F)nc12)N1CC[C@H](O)C1 [larotrectinib]
OATP1B1 substrate/inhibitor status per prescribing information (OATP1B1 [4]): neither a substrate nor an inhibitor of OATP1B1

Compound: Cc1ccc(Nc2nccc(N(C)c3ccc4c(C)n(C)nc4c3)n2)cc1S(N)(=O)=O [pazopanib]
Effect on systemic concentrations of the OATP1B1 substrate rosuvastatin [2]: increase the systemic concentrations

— publication PMC8358987 (Clinical cancer research : an official journal of the …, 2021)
